Data: publication PMC5218480 (PLoS ONE, 2017)

Tested on: MV-4-11 cells
Experiment: Gene expression microarray analysis (Affymetrix PrimeView) and GSEA
Assay type: cell-based, human
Design: RFU PODN (11730768_x_at) / Fold change /veh PODN (11730768_x_at) / RFU LINC00158 (11744669_a_at) / Fold change /veh LINC00158 (11744669_a_at) / RFU DUSP10 (11751237_a_at) / Fold change /veh DUSP10 (11751237_a_at) / RFU ID3 (11757404_x_at) / Fold change /veh ID3 (11757404_x_at) / RFU PLEKHG5 (11737974_s_at) / Fold change /veh PLEKHG5 (11737974_s_at) / RFU LRRC4B (11730491_at) / Fold change /veh LRRC4B (11730491_at) / RFU GIMAP4 (11747438_a_at) / Fold change /veh GIMAP4 (11747438_a_at) / RFU KRT8 (11758183_x_at) / Fold change /veh KRT8 (11758183_x_at) / RFU CNN1 (11734310_a_at) / Fold change /veh CNN1 (11734310_a_at) / RFU VPS37D (11726825_at) / Fold change /veh VPS37D (11726825_at) / RFU C10orf10 (11716522_x_at) / Fold change /veh C10orf10 (11716522_x_at) / RFU KIR2DL2 /// KIR2DL4 /// KIR2DL5A /// KIR2DL5B /// KIR2DS1 /// KIR2DS2 /// KIR2DS3 /// KIR2DS4 /// KIR3DL3 /// KIR3DL3 /// KIR3DS1 (11738374_at) / Fold change /veh KIR2DL2 /// KIR2DL4 /// KIR2DL5A /// KIR2DL5B /// KIR2DS1 /// KIR2DS2 /// KIR2DS3 /// KIR2DS4 /// KIR3DL3 /// KIR3DL3 /// KIR3DS1 (11738374_at) / RFU C1QL1 (11718748_at) / Fold change /veh C1QL1 (11718748_at) / RFU TMPRSS4 (11747572_a_at) / Fold change /veh TMPRSS4 (11747572_a_at) / RFU HAMP (11756126_x_at) / Fold change /veh HAMP (11756126_x_at) / RFU RNFT2 (11725882_a_at) / Fold change /veh RNFT2 (11725882_a_at) / RFU NR4A2 (11747474_a_at) / Fold change /veh NR4A2 (11747474_a_at) / RFU ABCC12 (11746883_a_at) / Fold change /veh ABCC12 (11746883_a_at) / RFU TMEM136 (11760407_x_at) / Fold change /veh TMEM136 (11760407_x_at) / RFU CLDN22 /// WWC2 (11732394_at) / Fold change /veh CLDN22 /// WWC2 (11732394_at) / RFU HLA-DPB1 (11760878_x_at) / Fold change /veh HLA-DPB1 (11760878_x_at) / RFU SPINT1 (11716480_a_at) / Fold change /veh SPINT1 (11716480_a_at) / RFU GAP43 (11754022_s_at) / Fold change /veh GAP43 (11754022_s_at) / RFU A4GNT (11735810_at) / Fold change /veh A4GNT (11735810_at) / RFU PRB3 (11715151_x_at) / Fold change /veh PRB3 (11715151_x_at) / RFU TUBB4B (11761932_at) / Fold change /veh TUBB4B (11761932_at) / RFU CAPN14 (11732068_a_at) / Fold change /veh CAPN14 (11732068_a_at) / RFU TMCC2 (11721928_a_at) / Fold change /veh TMCC2 (11721928_a_at) / RFU IRGQ (11745062_a_at) / Fold change /veh IRGQ (11745062_a_at) / RFU FAM174B (11720279_a_at) / Fold change /veh FAM174B (11720279_a_at) / RFU TMPRSS4 (11748680_a_at) / Fold change /veh TMPRSS4 (11748680_a_at) / RFU FAM212B (11763350_a_at) / Fold change /veh FAM212B (11763350_a_at) / RFU PLEKHG5 (11743358_a_at) / Fold change /veh PLEKHG5 (11743358_a_at) / RFU ZSCAN30 (11745921_a_at) / Fold change /veh ZSCAN30 (11745921_a_at) / RFU CMKLR1 (11741424_a_at) / Fold change /veh CMKLR1 (11741424_a_at) / RFU LOC101060620 /// MAPK8IP1 (11723275_at) / Fold change /veh LOC101060620 /// MAPK8IP1 (11723275_at) / RFU SPTSSB (11747773_x_at) / Fold change /veh SPTSSB (11747773_x_at) / RFU PRSS12 (11739890_at) / Fold change /veh PRSS12 (11739890_at) / RFU BIN1 (11741810_x_at) / Fold change /veh BIN1 (11741810_x_at) / RFU WNT11 (11732464_a_at) / Fold change /veh WNT11 (11732464_a_at) / RFU C10orf10 (11716521_a_at) / Fold change /veh C10orf10 (11716521_a_at) / RFU C5orf56 (11738089_at) / Fold change /veh C5orf56 (11738089_at) / RFU CYB561 (11721691_x_at) / Fold change /veh CYB561 (11721691_x_at) / RFU ANKRD19P (11752326_a_at) / Fold change /veh ANKRD19P (11752326_a_at) / RFU OR2T12 /// OR2T33 /// OR2T8 (11738714_s_at) / Fold change /veh OR2T12 /// OR2T33 /// OR2T8 (11738714_s_at) / RFU VCAN (11748164_a_at) / Fold change /veh VCAN (11748164_a_at) / RFU JSRP1 (11732532_at) / Fold change /veh JSRP1 (11732532_at) / RFU KRTAP10-11 (11738290_x_at) / Fold change /veh KRTAP10-11 (11738290_x_at) / RFU MYO3A (11730013_a_at) / Fold change /veh MYO3A (11730013_a_at) / RFU EBF3 (11725865_a_at) / Fold change /veh EBF3 (11725865_a_at) / RFU CAMK2N1 (11719241_x_at) / Fold change /veh CAMK2N1 (11719241_x_at) / RFU C5orf56 (11738088_a_at) / Fold change /veh C5orf56 (11738088_a_at) / RFU OLFML3 (11715873_a_at) / Fold change /veh OLFML3 (11715873_a_at) / RFU LOC100653217 /// NTM (11731650_a_at) / Fold change /veh LOC100653217 /// NTM (11731650_a_at) / RFU MAPK11 (11762145_a_at) / Fold change /veh MAPK11 (11762145_a_at) / RFU FIZ1 (11724087_x_at) / Fold change /veh FIZ1 (11724087_x_at) / RFU OASL (11726364_x_at) / Fold change /veh OASL (11726364_x_at) / RFU SOX15 (11748057_x_at) / Fold change /veh SOX15 (11748057_x_at) / RFU CD79A (11719716_a_at) / Fold change /veh CD79A (11719716_a_at) / RFU HIST1H1D (11736915_at) / Fold change /veh HIST1H1D (11736915_at) / RFU CASKIN2 (11723855_a_at) / Fold change /veh CASKIN2 (11723855_a_at) / RFU LOC730098 (11760151_x_at) / Fold change /veh LOC730098 (11760151_x_at) / RFU OR4N2 (11742367_at) / Fold change /veh OR4N2 (11742367_at) / RFU PRRT2 (11749266_a_at) / Fold change /veh PRRT2 (11749266_a_at) / RFU SNX32 (11753110_a_at) / Fold change /veh SNX32 (11753110_a_at) / RFU CDHR5 (11726645_a_at) / Fold change /veh CDHR5 (11726645_a_at) / RFU RCAN1 (11760418_a_at) / Fold change /veh RCAN1 (11760418_a_at) / RFU FAM167A (11723789_a_at) / Fold change /veh FAM167A (11723789_a_at) / RFU FAM26E (11764081_at) / Fold change /veh FAM26E (11764081_at) / RFU ISYNA1 (11749810_s_at) / Fold change /veh ISYNA1 (11749810_s_at) / RFU ACY1 (11761880_at) / Fold change /veh ACY1 (11761880_at) / RFU 11764098_at / Fold change /veh 11764098_at / RFU SAMD14 (11745864_x_at) / Fold change /veh SAMD14 (11745864_x_at) / RFU NPB (11741838_a_at) / Fold change /veh NPB (11741838_a_at) / RFU TMPRSS6 (11731388_a_at) / Fold change /veh TMPRSS6 (11731388_a_at) / RFU KRTAP10-2 (11738614_at) / Fold change /veh KRTAP10-2 (11738614_at) / RFU ARHGAP8 /// PRR5-ARHGAP8 (11727945_x_at) / Fold change /veh ARHGAP8 /// PRR5-ARHGAP8 (11727945_x_at) / RFU KRTAP5-7 /// NADSYN1 (11734609_at) / Fold change /veh KRTAP5-7 /// NADSYN1 (11734609_at) / RFU RASL12 (11751679_a_at) / Fold change /veh RASL12 (11751679_a_at) / RFU CDKN2B (11736163_a_at) / Fold change /veh CDKN2B (11736163_a_at) / RFU PRF1 (11729649_at) / Fold change /veh PRF1 (11729649_at) / RFU, ZNF638 /// ZNF638-IT1 / Fold change vs veh, ZNF638 /// ZNF638-IT1 / RFU, PANK3 / Fold change vs veh, PANK3 / RFU, SH3YL1 / Fold change vs veh, SH3YL1 / RFU, ZEB2 / Fold change vs veh, ZEB2 / RFU, NRIP1 / Fold change vs veh, NRIP1 / RFU, PTTG1IP / Fold change vs veh, PTTG1IP / RFU, CAPN2 / Fold change vs veh, CAPN2 / RFU, MED14 / Fold change vs veh, MED14 / RFU, SNORA58 / Fold change vs veh, SNORA58 / RFU, C1orf63 / Fold change vs veh, C1orf63 / RFU, LRRFIP1 / Fold change vs veh, LRRFIP1 / RFU, NDUFAF7 / Fold change vs veh, NDUFAF7 / RFU, SLC12A2 / Fold change vs veh, SLC12A2 / RFU, IBTK / Fold change vs veh, IBTK / RFU, ESF1 / Fold change vs veh, ESF1 / Fold change vs veh, TMEM50B / RFU, TAOK1 / Fold change vs veh, TAOK1 / RFU, ACBD3 / Fold change vs veh, ACBD3 / RFU, TMA16 / Fold change vs veh, TMA16 / RFU, RWDD3 / Fold change vs veh, RWDD3 / RFU, BCAT1 / Fold change vs veh, BCAT1 / RFU, EDEM3 / Fold change vs veh, EDEM3 / RFU, TMEM33 / Fold change vs veh, TMEM33 / RFU, WDR75 / Fold change vs veh, WDR75 / RFU, AHCTF1 / Fold change vs veh, AHCTF1 / RFU, TFRC / Fold change vs veh, TFRC / RFU, ZDHHC17 / Fold change vs veh, ZDHHC17 / RFU, NOM1 / Fold change vs veh, NOM1 / RFU, ARL8B / Fold change vs veh, ARL8B / RFU, ZBTB11 / Fold change vs veh, ZBTB11 / RFU, TAMM41 / Fold change vs veh, TAMM41 / RFU, KIAA1704 /// LOC100996395 / Fold change vs veh, KIAA1704 /// LOC100996395 / RFU, ING1 / Fold change vs veh, ING1 / RFU, TRMT61B / Fold change vs veh, TRMT61B / RFU, FUBP3 / Fold change vs veh, FUBP3 / RFU, TP53 / Fold change vs veh, TP53 / RFU, TNKS2 / Fold change vs veh, TNKS2 / RFU, ZFP14 / Fold change vs veh, ZFP14 / RFU, ACTR2 / Fold change vs veh, ACTR2 / RFU, PPP3R1 / Fold change vs veh, PPP3R1 / RFU, PIK3R1 / Fold change vs veh, PIK3R1 / RFU, HNRNPA1 / Fold change vs veh, HNRNPA1 / RFU, RNF170 / Fold change vs veh, RNF170 / RFU, ZNF28 / Fold change vs veh, ZNF28 / RFU, RNGTT / Fold change vs veh, RNGTT / RFU, OGT / Fold change vs veh, OGT / RFU, BRD1 / Fold change vs veh, BRD1 / RFU, MARS / Fold change vs veh, MARS / RFU, ZNF655 / Fold change vs veh, ZNF655 / RFU, FAHD1 / Fold change vs veh, FAHD1 / RFU, BDP1 / Fold change vs veh, BDP1 / RFU, LRRCC1 / Fold change vs veh, LRRCC1 / RFU, ARID1A / Fold change vs veh, ARID1A / RFU, ZNF146 / Fold change vs veh, ZNF146 / RFU, ZNF330 / Fold change vs veh, ZNF330 / RFU, GPN3 / Fold change vs veh, GPN3 / RFU, C9orf123 / Fold change vs veh, C9orf123 / RFU, N4BP2L2 / Fold change vs veh, N4BP2L2 / RFU, ARFIP1 / Fold change vs veh, ARFIP1 / RFU, FAM179B / Fold change vs veh, FAM179B / RFU, BCL10 / Fold change vs veh, BCL10 / RFU, UHRF1BP1L / Fold change vs veh, UHRF1BP1L / RFU, BET1 / Fold change vs veh, BET1 / RFU, CNOT2 / Fold change vs veh, CNOT2 / RFU, ZNF268 / Fold change vs veh, ZNF268 / Fold change vs veh, ZNF507 / RFU, DGCR2 / Fold change vs veh, DGCR2 / RFU, WDSUB1 / Fold change vs veh, WDSUB1 / Fold change vs veh, HSP90B1 /// MIR3652 / RFU, ADSS / Fold change vs veh, ADSS / RFU, GK / Fold change vs veh, GK / RFU, ZNF148 / Fold change vs veh, ZNF148 / RFU, TAF9 / Fold change vs veh, TAF9 / RFU, SLC1A5 / Fold change vs veh, SLC1A5 / RFU, SLMO2 / Fold change vs veh, SLMO2 / RFU, ABCC4 / Fold change vs veh, ABCC4 / RFU, LOC101060439 /// RAP1B / Fold change vs veh, LOC101060439 /// RAP1B / RFU, RFX7 / Fold change vs veh, RFX7 / RFU, GTPBP10 / Fold change vs veh, GTPBP10 / RFU, CNEP1R1 / Fold change vs veh, CNEP1R1 / RFU, BIVM-ERCC5 /// ERCC5 / Fold change vs veh, BIVM-ERCC5 /// ERCC5 / RFU, ILF3 / Fold change vs veh, ILF3 / RFU 11762660_at / Fold change /veh 11762660_at / RFU VCAN (11757783_s_at) / Fold change /veh VCAN (11757783_s_at) / RFU DDX43 (11728927_at) / Fold change /veh DDX43 (11728927_at) / RFU KRT8 (11758188_x_at) / Fold change /veh KRT8 (11758188_x_at) / RFU NKD1 (11759106_at) / Fold change /veh NKD1 (11759106_at) / RFU SRD5A1 (11742802_a_at) / Fold change /veh SRD5A1 (11742802_a_at) / RFU TPSAB1 /// TPSB2 (11721975_s_at) / Fold change /veh TPSAB1 /// TPSB2 (11721975_s_at) / RFU GSTM3 (11746129_a_at) / Fold change /veh GSTM3 (11746129_a_at) / RFU IL23R (11737362_x_at) / Fold change /veh IL23R (11737362_x_at) / RFU TMEM51 (11727254_a_at) / Fold change /veh TMEM51 (11727254_a_at) / RFU PIWIL2 (11732686_x_at) / Fold change /veh PIWIL2 (11732686_x_at) / RFU ORM1 (11744905_x_at) / Fold change /veh ORM1 (11744905_x_at) / RFU CCDC152 (11743942_at) / Fold change /veh CCDC152 (11743942_at) / RFU ECM1 (11717891_a_at) / Fold change /veh ECM1 (11717891_a_at) / RFU IL23R (11748794_a_at) / Fold change /veh IL23R (11748794_a_at) / RFU TNFAIP8L3 (11732012_x_at) / Fold change /veh TNFAIP8L3 (11732012_x_at) / RFU MBOAT4 (11741988_at) / Fold change /veh MBOAT4 (11741988_at) / RFU 11764193_at / Fold change /veh 11764193_at / RFU TMEM53 (11763286_at) / Fold change /veh TMEM53 (11763286_at) / RFU MAGEB2 (11727129_at) / Fold change /veh MAGEB2 (11727129_at) / RFU TMEM200A (11744735_a_at) / Fold change /veh TMEM200A (11744735_a_at) / RFU CCDC152 (11751479_a_at) / Fold change /veh CCDC152 (11751479_a_at) / RFU FAM211A (11726209_a_at) / Fold change /veh FAM211A (11726209_a_at) / RFU RGS16 (11746705_a_at) / Fold change /veh RGS16 (11746705_a_at) / RFU VCAN (11755009_s_at) / Fold change /veh VCAN (11755009_s_at) / RFU RHOB (11743442_s_at) / Fold change /veh RHOB (11743442_s_at) / RFU RGS16 (11720943_a_at) / Fold change /veh RGS16 (11720943_a_at) / RFU RGS16 (11720944_at) / Fold change /veh RGS16 (11720944_at) / RFU, VPS4B / Fold change vs veh, VPS4B / RFU, CREB1 / Fold change vs veh, CREB1 / RFU, DNAJC13 / Fold change vs veh, DNAJC13 / RFU, GNAQ / Fold change vs veh, GNAQ / RFU, CDK5R1 / Fold change vs veh, CDK5R1 / RFU, ZRANB3 / Fold change vs veh, ZRANB3 / RFU, CUL4A / Fold change vs veh, CUL4A / RFU, CCNY / Fold change vs veh, CCNY / RFU, UFL1 / Fold change vs veh, UFL1 / RFU, COG3 / Fold change vs veh, COG3 / RFU, DIAPH2 / Fold change vs veh, DIAPH2 / RFU, SKA2 / Fold change vs veh, SKA2 / RFU, AFF3 / Fold change vs veh, AFF3 / RFU, LMF1 / Fold change vs veh, LMF1 / RFU, IPO11 / Fold change vs veh, IPO11 / RFU, DFFB / Fold change vs veh, DFFB / RFU, FOXP1 / Fold change vs veh, FOXP1 / RFU, CARD8 / Fold change vs veh, CARD8 / RFU, STRN3 / Fold change vs veh, STRN3 / RFU, ADK / Fold change vs veh, ADK / RFU, RASSF2 / Fold change vs veh, RASSF2 / RFU, WIPF1 / Fold change vs veh, WIPF1 / RFU, LARP1B / Fold change vs veh, LARP1B / RFU, RASA1 / Fold change vs veh, RASA1 / RFU, RB1 / Fold change vs veh, RB1 / RFU, PPFIA1 / Fold change vs veh, PPFIA1 / RFU, MAT2A / Fold change vs veh, MAT2A / RFU, CCT5 / Fold change vs veh, CCT5 / RFU, WDR92 / Fold change vs veh, WDR92 / RFU, CUX1 / Fold change vs veh, CUX1 / RFU, TTC7A / Fold change vs veh, TTC7A / RFU, TMEM135 / Fold change vs veh, TMEM135 / RFU, DEPTOR / Fold change vs veh, DEPTOR / RFU, CPM / Fold change vs veh, CPM / RFU, DNAJB6 / Fold change vs veh, DNAJB6 / RFU, CACNA2D3 / Fold change vs veh, CACNA2D3 / RFU, DTX4 / Fold change vs veh, DTX4 / RFU, TFCP2 / Fold change vs veh, TFCP2 / RFU, GMCL1 /// GMCL1P1 / Fold change vs veh, GMCL1 /// GMCL1P1 / RFU, AEBP2 / Fold change vs veh, AEBP2 / RFU, SNHG1 /// SNORD22 /// SNORD25 /// SNORD26 /// SNORD27 /// SNORD28 /// SNORD29 /// SNORD31 / Fold change vs veh, SNHG1 /// SNORD22 /// SNORD25 /// SNORD26 /// SNORD27 /// SNORD28 /// SNORD29 /// SNORD31 / Fold change (Aza/veh), C12orf56 (ProbeSet 11735607_a_at) / Fold change (ACY-1035/veh), C12orf56 (ProbeSet 11735607_a_at) / Fold change (Aza/veh), FGFR1OP (ProbeSet 11751329_s_at) / Fold change (ACY-1035/veh), FGFR1OP (ProbeSet 11751329_s_at) / Fold change (Aza/veh), VPS36 (ProbeSet 11739960_a_at) / Fold change (ACY-1035/veh), VPS36 (ProbeSet 11739960_a_at) / RFU SYPL1 (11715823_x_at) / Fold change /veh SYPL1 (11715823_x_at) / RFU IGFBP7 (11715501_s_at) / Fold change /veh IGFBP7 (11715501_s_at) / RFU REEP3 (11722064_at) / Fold change /veh REEP3 (11722064_at) / RFU IGLL1 (11728026_x_at) / Fold change /veh IGLL1 (11728026_x_at): dose or concentration left out as unconfirmed
Conditions: ProbeSet 11718977_a_at; LIST B

## Nc1ccc(-c2cccs2)cc1NC(=O)c1ccc2c(c1)cc(C1CC1)n2CCN1CCOCC1 [ACY-1035]
  Fold change vs veh, CAPN2: 0.88
